Publication PMC10504260, “Identification of a c-type heme oxygenase and its function during acclimation of cyanobacteria to nitrogen fluctuations” (Communications Biology, 2023)

Tests used:
[1] = target: T1, Ssr1698 (cHO) (Synechocystis sp. PCC 6803, UniProt P73129); assay: UV-visible assay of MP-11 (c-type heme) degradation with added biliverdin IXα; format: biochemical; conditions: product inhibition; substrate MP-11, ascorbate, catalase, PBS pH 7.4
T1 construct: full-length 96-residue protein; GST fusion from pGEX-5X-1 (BamHI/XhoI) in E. coli BL21(DE3) pLysS, GST tag removed by Factor Xa, SEC; dimer
T1 sequence (P73129 1-96): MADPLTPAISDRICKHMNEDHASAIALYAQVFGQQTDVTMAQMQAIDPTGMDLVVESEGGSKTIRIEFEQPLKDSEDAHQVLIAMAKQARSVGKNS

[2] = target: T1, Ssr1698 (cHO); assay: HPLC and LC-MS of reaction product; format: biochemical; conditions: substrate MP-11 (c-type heme), 10 mM ascorbic acid, 2 µM catalase, PBS pH 7.4, 2 h
[3] = target: Ssr1698 (c-type heme oxygenase, cHO), purified tag-less apo-Ssr1698 (Synechocystis sp. strain PCC 6803); assay: native gel or EMSA; clear native-PAGE (CN-PAGE) of purified tag-less Ssr1698; 5-12.5% acrylamide gradient gel, 0.01% DM and 0.025% deoxycholate in the cathode buffer, 4 °C
[4] = target: Ssr1698 (c-type heme oxygenase, cHO), purified tag-less apo-Ssr1698 (Synechocystis sp. strain PCC 6803); assay: SEC; Superdex 200 Increase 10/300GL equilibrated with PBS buffer (pH 7.4); tag-less Ssr1698 after removal of GST by Factor Xa

stoichiometry N [3] | stoichiometry N [4] | Compound | suppression of c-type heme degradation [1] | HPLC and LC-MS of reaction product [2]
 |  | C=CC1=C(C)C(=Cc2[nH]c(C=C3N=C(C=C4NC(=O)C(C)=C4C=C)C(C)=C3CCC(=O)O)c(CCC(=O)O)c2C)NC1=O [biliverdin IXα] | degradation of c-type heme is significantly suppressed after the addition of biliverdin IXα | biliverdin IXα molecule, 11-amino acid peptide and free iron were identified in the reaction product
2 | 2 | Ssr1698 (c-type heme oxygenase, cHO), purified tag-less apo-Ssr1698 (enzyme) |  | 
